Where two headings read alike, the source gives them in different places. Marks after values point to notes of the source that are not given here.
Assays:
[1] = Compound I Form I solubility in various liquid vehicles; format: physicochemical
[2] = Compound I chemical stability in various liquid vehicles at 40° C.; format: physicochemical; conditions: 40° C. vs −20° C. control
Description: Stability of 3-[(3aR,4R,5S,7aS)-5-{(1R)-1-[3,5-bis(Trifluoromethyl)phenyl]ethoxy}-4-(4-fluorophenyl)-octahydro-2H-isoindol-2-yl]cyclopent-2-en-1-one, (Compound I) in Various Liquid Vehicles

[3] = Pharmacokinetics after oral administration of liquid filled capsules; format: in vivo, male Beagle dogs; conditions: male, Beagle, dog, plasma, 40 mg, 40 mg oral, Mean ± SD; for AUC(0-t): read-out: AUC0-24
[4] = liquid filled capsules with Imwitor742/Tween80 (75:25), male Beagle dogs
[5] = liquid filled capsules with Imwitor742:Tween80 (50:50), male Beagle dogs
[6] = liquid filled capsules with pure Imwitor742, male Beagle dogs

C[C@@H](O[C@H]1CC[C@@H]2CN(C3=CC(=O)CC3)C[C@H]2[C@@H]1c1ccc(F)cc1)c1cc(C(F)(F)F)cc(C(F)(F)F)c1 [Compound I, 3-[(3aR,4R,5S,7aS)-5-{(1R)-1-[3,5-bis(Trifluoromethyl)phenyl]ethoxy}-4-(4-fluorophenyl)-octahydro-2H-isoindol-2-yl]cyclopent-2-en-1-one]
Solubility ([1]; Form I, 0.5% Methylcellulose, Room Temp): 0.001 mg/g of formulation
Solubility ([1]; Form I, 1:1 Imwitor:Tween + 1 eq HCl, Room Temp): >57 mg/g of formulation
Solubility ([1]; Form I, Acconon MC-8, 35° C.): <1 mg/g of formulation
Solubility ([1]; Form I, Capmul MCM C-8, 35° C.): 53 mg/g of formulation
Solubility ([1]; Form I, Capmul PG-8, 35° C.): 50 mg/g of formulation
Solubility ([1]; Form I, Capmul PG-12, 35° C.): 25 mg/g of formulation
Solubility ([1]; Form I, Capryol PGMC, 30° C.): 29 mg/g of formulation
Solubility ([1]; Form I, Capryol PGMC, Room Temp): >6 mg/g of formulation
Solubility ([1]; Form I, Captex 200P, 35° C.): 2 mg/g of formulation
Solubility ([1]; Form I, Corn Oil, Room Temp): <0.1 mg/g of formulation
Solubility ([1]; Form I, Cremophor EL, Room Temp): 2 mg/g of formulation
Solubility ([1]; Form I, Ethanol, Room Temp): 58 mg/g of formulation
Solubility ([1]; Form I, Gelucire 44/14, 65° C.): 4 mg/g of formulation
Solubility ([1]; Form I, Glycerin, Room Temp): <0.5 mg/g of formulation
Solubility ([1]; Form I, Imwitor 308, 35° C.): 58 mg/g of formulation
Solubility ([1]; Form I, Imwitor 642, 35° C.): 78 mg/g of formulation
Solubility ([1]; Form I, Imwitor 742, 30° C.): 43 mg/g of formulation
Solubility ([1]; Form I, Imwitor 742, 35° C.): 46 mg/g of formulation
Solubility ([1]; Form I, Imwitor 742, Room Temp): >6 mg/g of formulation
Solubility ([1]; Form I, Imwitor 988, 35° C.): 54 mg/g of formulation
Solubility ([1]; Form I, Labrafil M1944CS, 35° C.): 4 mg/g of formulation
Solubility ([1]; Form I, Labrafil M2125CS, 35° C.): 4 mg/g of formulation
Solubility ([1]; Form I, Labrafil M2125CS, Room Temp): 5 mg/g of formulation
Solubility ([1]; Form I, Labrasol, 35° C.): 11 mg/g of formulation
Solubility ([1]; Form I, Labrasol, Room Temp): 7 mg/g of formulation
Solubility ([1]; Form I, Miglyol 812, Room Temp): 0.4 mg/g of formulation
Solubility ([1]; Form I, Olive Oil, Room Temp): <0.1 mg/g of formulation
Solubility ([1]; Form I, PEG 400:water (92:8) + 1 eq HCl, Room Temp): 24 mg/g of formulation
Solubility ([1]; Form I, PEG 400:water (92:8) + 1 eq NaOH, Room Temp): 1.3 mg/g of formulation
Solubility ([1]; Form I, PEG 400:water (92:8), Room Temp): 1.0 mg/g of formulation
Solubility ([1]; Form I, PEG 400, Room Temp): 2 mg/g of formulation
Solubility ([1]; Form I, Peceol, 35° C.): 19 mg/g of formulation
Solubility ([1]; Form I, Propylene Glycol, 35° C.): 8 mg/g of formulation
Solubility ([1]; Form I, Propylene Glycol, Room Temp): 5 mg/g of formulation
Solubility ([1]; Form I, Soybean Oil, Room Temp): <0.1 mg/g of formulation
Solubility ([1]; Form I, Tween 20, Room Temp): 2 mg/g of formulation
Solubility ([1]; Form I, Tween 80, Room Temp): 1 mg/g of formulation
Solubility ([1]; Form I, Water, Room Temp): <0.0002 mg/g of formulation
Solubility ([1]; Form I, pH 1.3 aqueous, Room Temp): 0.001 mg/g of formulation
Solubility ([1]; Form I, pH 2.2 to 10.1 aqueous, Room Temp): <0.0002 mg/g of formulation
Solubility ([1]; aqueous medium, read-out: aqueous solubility): < 0.2 µg/mL
solubility in Miglyol 812 ([1]; relative to a fully efficacious amount of solubilized compound in a 500 mg capsule): not sufficiently soluble
Chemical stability ([2]; 1 mg Compound I/g vehicle, 1:1 Imwitor 742:Tween 80 +0.05% PG + 0.05% BHA, 1 wk): 102.2 % claim
Chemical stability ([2]; 1 mg Compound I/g vehicle, 1:1 Imwitor 742:Tween 80 +0.05% PG + 0.05% BHA, 18 wk): 94.7 % claim
Chemical stability ([2]; 1 mg Compound I/g vehicle, 1:1 Imwitor 742:Tween 80 +0.05% PG + 0.05% BHT, 1 wk): 99.4 % claim
Chemical stability ([2]; 1 mg Compound I/g vehicle, 1:1 Imwitor 742:Tween 80 +0.05% PG + 0.05% BHT, 18 wk): 93.7 % claim
Chemical stability ([2]; 1 mg Compound I/g vehicle, 1:1 Imwitor 742:Tween 80 +0.05% PG + 0.05% NaSO3, 1 wk): 98.5 % claim
Chemical stability ([2]; 1 mg Compound I/g vehicle, 1:1 Imwitor 742:Tween 80 +0.1% Ascorbic Acid Palmitate, 1 wk): 94.2 % claim
Chemical stability ([2]; 1 mg Compound I/g vehicle, 1:1 Imwitor 742:Tween 80 +0.1% Ascorbic Acid Palmitate, 4 wk): 89.4 % claim
Chemical stability ([2]; 1 mg Compound I/g vehicle, 1:1 Imwitor 742:Tween 80 +0.1% BHA, 1 wk): 98.4 % claim
Chemical stability ([2]; 1 mg Compound I/g vehicle, 1:1 Imwitor 742:Tween 80 +0.1% BHA, 4 wk): 96.1 % claim
Chemical stability ([2]; 1 mg Compound I/g vehicle, 1:1 Imwitor 742:Tween 80 +0.1% Propyl Gallate, 1 wk): 99.6 % claim
Chemical stability ([2]; 1 mg Compound I/g vehicle, 1:1 Imwitor 742:Tween 80 +0.1% Propyl Gallate, 4 wk): 97.7 % claim
Chemical stability ([2]; 1 mg Compound I/g vehicle, 1:1 Imwitor 742:Tween 80 +0.1% Propyl Gallate, 18 wk): 93.1 % claim
Chemical stability ([2]; 1 mg Compound I/g vehicle, 1:1 Imwitor 742:Tween 80 +0.1% α-tocopherol, 1 wk): 86.7 % claim
Chemical stability ([2]; 1 mg Compound I/g vehicle, 1:1 Imwitor 742:Tween 80 +0.1% α-tocopherol, 4 wk): 71.1 % claim
Chemical stability ([2]; 1 mg Compound I/g vehicle, 1:1 Imwitor 742:Tween 80, 1 wk): 95.2 % claim
Chemical stability ([2]; 1 mg Compound I/g vehicle, 1:1 Imwitor 742:Tween 80, 4 wk): 90.4 % claim
Chemical stability ([2]; 1 mg Compound I/g vehicle, 1:1 Imwitor 742:Tween 80, 5 wk): 83.8 % claim
Chemical stability ([2]; 1 mg Compound I/g vehicle, 1:1 Imwitor 742:Tween 80, 18 wk): 73.7 % claim
Chemical stability ([2]; 1 mg Compound I/g vehicle, 6:4 Imwitor 742:Propylene Glycol, 1 wk): 100.2 % claim
Chemical stability ([2]; 1 mg Compound I/g vehicle, 6:4 Imwitor 742:Propylene Glycol, 2 wk): 100.6 % claim
Chemical stability ([2]; 1 mg Compound I/g vehicle, 6:4 Imwitor 742:Propylene Glycol, 4 wk): 100.0 % claim
Chemical stability ([2]; 1 mg Compound I/g vehicle, 6:4 Imwitor 742:Propylene Glycol, 8 wk): 100.6 % claim
Chemical stability ([2]; 1 mg Compound I/g vehicle, 9:1 Imwitor 742:Tween 80, 1 wk): 99.6 % claim
Chemical stability ([2]; 1 mg Compound I/g vehicle, 9:1 Imwitor 742:Tween 80, 9.5 wk): 96.4 % claim
Chemical stability ([2]; 1 mg Compound I/g vehicle, Capmul MCM C8, 1 wk): 99.0 % claim
Chemical stability ([2]; 1 mg Compound I/g vehicle, Capmul MCM C8, 32.5 wk): 78.1 % claim
Chemical stability ([2]; 1 mg Compound I/g vehicle, Capmul PG-8, 1 wk): 99.7 % claim
Chemical stability ([2]; 1 mg Compound I/g vehicle, Imwitor 742, 1 wk): 99.8 % claim
Chemical stability ([2]; 1 mg Compound I/g vehicle, Imwitor 742, 5 wk): 98.8 % claim
Chemical stability ([2]; 1 mg Compound I/g vehicle, Imwitor 742, 9.5 wk): 99.8 % claim
Chemical stability ([2]; 1 mg Compound I/g vehicle, Imwitor 742, 32.5 wk): 97.0 % claim
Chemical stability ([2]; at 10 mg/g, Imwitor 742 + 0.75 eq HCl, 1 wk): 100.6 % claim
Chemical stability ([2]; at 10 mg/g, Imwitor 742:Tween 80 +0.75 eq Benzenesulfonic Acid (acid not completely dissolved), 1 wk): 99.1* % claim
Chemical stability ([2]; at 10 mg/g, Imwitor 742:Tween 80 +0.75 eq HCl, 1 wk): 95.2 % claim
Chemical stability ([2]; at 10 mg/g, Imwitor 742:Tween 80 +0.75 eq Phosphoric Acid, 1 wk): 96.4 % claim
Chemical stability ([2]; at 10 mg/g, Imwitor 742:Tween 80 +0.75 eq Sulfuric Acid, 1 wk): 82.9 % claim
Chemical stability ([2]; at 10 mg/g, PEG 400 + 0.75 eq HCl, 1 wk): 60.3 % claim
Chemical stability ([2]; at 10 mg/g, Propylene Glycol + 0.75 eq HCl, 1 wk): 95.2 % claim
Cmax [3, 4]: 4.06 ± 0.49 µM
Tmax [3, 4]: 3.33 ± 1.03 h
AUC(0-t) [3, 4]: 65.4 ± 14.7 µM·h
Cmax [3, 5]: 3.04 ± 0.44 µM
Tmax [3, 5]: 3.67 ± 0.82 h
AUC(0-t) [3, 5]: 49 ± 11.5 µM·h
Cmax [3, 6]: 4.22 ± 0.54 µM
Tmax [3, 6]: 4.67 ± 1.63 h
AUC(0-t) [3, 6]: 69 ± 14.2 µM·h

Reference: patent US20100209496A1, “LIQUID AND SEMI-SOLID PHARMACEUTICAL FORMULATIONS FOR ORAL ADMINISTRATION OF A SUBSTITUTED AMIDE” (priority 2006, published 2010)
